Laboratory results from patent US11020380B2, “Therapeutic compounds” (CELGENE QUANTICEL RESEARCH, INC., priority 2017, dated 2021).
Where two headings read alike, the source gives them in different places.

How the values were obtained:
Assay type in all cases: binding
CBP [1] = molecular target: CBP (Homo sapiens, UniProt Q92793); assay: In vitro CBP inhibition (AlphaScreen, biotinylated H4-tetraacetyl peptide)
Experimental: (§1) The CBP-inhibitory activity of the compounds described herein was determined by calculating the IC50. More specifically, CBP inhibitor activity was assayed as follows: CBP was cloned and expressed in E. coli as His-tag protein and purified by Nickel affinity and gel-filtration chromatography. […] CBP binding and inhibition is assessed by monitoring the interaction of biotinylated H4-tetraacetyl peptide (AnaSpec, H4K5/8/12/16(Ac), biotin-labeled) with the target using the AlphaScreen technology (Perkin Elmer). In a 384-well ProxiPlate CBP (50 nM final) was combined with peptide (20 nM final) in 50 mM HEPES (pH 7.3), 10 mM NaCl, 0.25 mM TCEP, 0.1% (w/v) BSA, and 0.005% (w/v) Brij-35 either in the presence of DMSO (final 0.4% DMSO) or compound dilution series in DMSO. After 20 min incubation at room temp, Alpha-streptavidin donor beads and Nickel Chelate acceptor beads were added to a final concentration of 5 μg/mL.
(§2) The ability of the compounds disclosed herein to inhibit CBP activity was quantified and the respective IC50 value determined.

CBP [2] = assay: as above; details: selectivity CBP vs BRD4
Experimental: as §1, §2

BRD4 = BRD4 (Homo sapiens (Human), UniProt O60885); assay: In vitro enzyme inhibition assay - BRD4 inhibition; details: BRD4 BD1

CBP (Homo sapiens, UniProt Q92793), sequence (Q92793 2-2442 limits assumed): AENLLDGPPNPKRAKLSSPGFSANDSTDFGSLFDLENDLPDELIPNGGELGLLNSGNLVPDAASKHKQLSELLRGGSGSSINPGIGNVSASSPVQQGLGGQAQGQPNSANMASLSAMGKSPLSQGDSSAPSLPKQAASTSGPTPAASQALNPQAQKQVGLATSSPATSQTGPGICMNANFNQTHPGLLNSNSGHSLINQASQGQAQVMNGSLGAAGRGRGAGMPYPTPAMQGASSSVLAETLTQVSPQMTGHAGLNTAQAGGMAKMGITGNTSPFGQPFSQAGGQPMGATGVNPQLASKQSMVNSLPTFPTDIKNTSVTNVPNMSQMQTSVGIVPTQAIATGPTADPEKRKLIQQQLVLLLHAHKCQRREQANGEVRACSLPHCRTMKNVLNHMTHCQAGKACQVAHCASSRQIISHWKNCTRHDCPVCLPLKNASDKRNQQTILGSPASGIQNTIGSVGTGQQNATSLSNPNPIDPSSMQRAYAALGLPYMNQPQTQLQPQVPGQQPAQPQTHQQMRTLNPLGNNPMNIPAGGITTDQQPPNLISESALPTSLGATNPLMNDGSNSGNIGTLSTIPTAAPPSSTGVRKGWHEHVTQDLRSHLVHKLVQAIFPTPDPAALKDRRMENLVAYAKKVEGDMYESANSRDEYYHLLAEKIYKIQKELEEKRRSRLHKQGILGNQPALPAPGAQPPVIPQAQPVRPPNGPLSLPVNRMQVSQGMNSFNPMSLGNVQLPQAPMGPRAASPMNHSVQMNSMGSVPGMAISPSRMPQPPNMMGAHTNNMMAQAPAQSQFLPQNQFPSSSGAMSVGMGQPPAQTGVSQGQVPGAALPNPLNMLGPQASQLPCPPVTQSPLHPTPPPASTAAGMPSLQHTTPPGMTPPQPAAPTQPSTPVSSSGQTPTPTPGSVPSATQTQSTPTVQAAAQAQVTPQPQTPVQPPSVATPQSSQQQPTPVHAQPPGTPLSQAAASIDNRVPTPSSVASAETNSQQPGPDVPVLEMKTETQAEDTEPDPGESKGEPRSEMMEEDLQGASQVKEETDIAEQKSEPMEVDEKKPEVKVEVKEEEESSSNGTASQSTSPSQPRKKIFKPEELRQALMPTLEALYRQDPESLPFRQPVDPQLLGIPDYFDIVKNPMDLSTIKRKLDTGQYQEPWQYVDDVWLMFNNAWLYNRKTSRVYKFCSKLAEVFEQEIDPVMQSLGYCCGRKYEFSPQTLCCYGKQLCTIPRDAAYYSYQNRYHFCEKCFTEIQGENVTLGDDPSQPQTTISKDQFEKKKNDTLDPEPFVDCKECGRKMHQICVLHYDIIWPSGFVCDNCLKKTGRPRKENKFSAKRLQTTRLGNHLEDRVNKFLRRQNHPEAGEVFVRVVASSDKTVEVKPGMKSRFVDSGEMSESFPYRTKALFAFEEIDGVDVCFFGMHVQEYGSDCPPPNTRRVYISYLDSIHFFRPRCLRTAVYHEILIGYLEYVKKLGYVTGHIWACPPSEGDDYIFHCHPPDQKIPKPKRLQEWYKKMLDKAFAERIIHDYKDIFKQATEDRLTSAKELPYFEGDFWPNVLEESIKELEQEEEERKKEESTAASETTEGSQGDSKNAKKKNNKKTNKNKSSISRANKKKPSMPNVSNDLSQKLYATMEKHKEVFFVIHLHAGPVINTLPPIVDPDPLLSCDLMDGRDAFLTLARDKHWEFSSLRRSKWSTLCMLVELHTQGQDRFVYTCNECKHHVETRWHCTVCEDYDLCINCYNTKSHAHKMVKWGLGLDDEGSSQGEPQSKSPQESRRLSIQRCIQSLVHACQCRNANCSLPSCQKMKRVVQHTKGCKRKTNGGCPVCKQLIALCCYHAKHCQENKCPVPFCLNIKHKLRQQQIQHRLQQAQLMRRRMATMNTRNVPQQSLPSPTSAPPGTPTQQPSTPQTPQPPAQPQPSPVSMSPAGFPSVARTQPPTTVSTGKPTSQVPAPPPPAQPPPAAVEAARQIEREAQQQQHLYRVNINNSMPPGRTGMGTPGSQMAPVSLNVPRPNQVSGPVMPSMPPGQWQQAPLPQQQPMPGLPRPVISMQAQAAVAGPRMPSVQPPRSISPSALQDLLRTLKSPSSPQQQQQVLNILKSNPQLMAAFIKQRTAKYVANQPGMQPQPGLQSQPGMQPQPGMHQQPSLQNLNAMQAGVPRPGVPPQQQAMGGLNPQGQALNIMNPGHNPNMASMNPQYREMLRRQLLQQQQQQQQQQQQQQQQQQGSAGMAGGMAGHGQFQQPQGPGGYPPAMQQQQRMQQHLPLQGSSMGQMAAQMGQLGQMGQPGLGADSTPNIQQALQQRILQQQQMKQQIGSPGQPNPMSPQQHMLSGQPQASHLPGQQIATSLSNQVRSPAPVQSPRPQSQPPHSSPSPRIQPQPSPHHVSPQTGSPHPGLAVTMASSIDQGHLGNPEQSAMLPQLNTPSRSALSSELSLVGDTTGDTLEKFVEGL

Molecule	IC50 (CBP [1]; read-out: CBP IC50)	IC50 for CBP compared with IC50 for BRD4 (CBP [2])	IC50 (CBP [1]; read-out: CRREBBP IC50)	IC50 (BRD4)
CCOc1cc(=O)n(C)cc1-c1cnn(C(C)c2ccccc2)c1 (stereo not shown) [Example 39, 4-ethoxy-1-methyl-5-(1-(1-phenylethyl)-1H-pyrazol-4-yl) pyridin-2(1H)-one]	< 500 nM	–	–	–
CN(C)CCCOc1ccc(-c2cc(=O)n(C)cc2-c2cnn(-c3cccc(Cl)c3C#N)c2)cn1 [Example 356, 2-chloro-6-(4-(6-(3-(dimethylamino)propoxy)-1′-methyl-6′-oxo-1′,6′-dihydro-[3,4′-bipyridin]-3′-yl)-1H-pyrazol-1-yl)benzonitrile]	< 500 nM	–	–	–
Cn1cc(-c2cnn(Cc3ccccc3)c2)c(-n2cccc2)cc1=O [5-(1-benzyl-1H-pyrazol-4-yl)-1-methyl-4-(1H-pyrrol-1-yl)pyridin-2(1H)-one]	–	lower IC50 for CBP than for BRD4	–	–
1-methyl-5-(1-(1-phenylethyl)-1H- pyrazol-4-yl)-4-(pyrrolidin-1-yl) pyridin-2(1H)-one [Example 41]	< 500 nM	–	< 500 nM	500 to 5000 nM
CNC(=O)[C@@H]1CCN(c2cc(=O)n(C)cc2-c2cnn(Cc3ccccc3)c2)C1 [Example 88]	< 500 nM	–	–	–
